In assay [1] the test system is hairless mouse skin. Description: Appearance and texture of treated skin. It counts as in vivo. The following applies: application of CBE. The procedure: To determine whether inhibitors of β-glucocerebrosidase would cause more profound effects than applications of exogenous GlcCER alone (examples 5&6), we next applied the specific, suicide inhibitor, bromoconduritol-B-epoxide (BrCBE) to intact hairless mouse skin (Simonsen Laboratories, Gilroy, Calif.) (Holleran, W. M. et al., J. Clin. Invest. (1993) 91:1656-1664). BrCBE (325 nmol in 20 μl propylene glycol:ethanol, 7:3 vols) was applied once daily for 0-14 days. (Holleran, W. M. et al. (1994) J. Clin. Inv. 93:1756-1764)

Assay [2] deals with murine epidermis. Description: Epidermal DNA synthesis, [3H]-thymidine incorporation in vivo. Also noted: species or system mouse. The procedure:
To assess the effects of a topical β-glucocerebrosidase inhibitor, conduritol-B-epoxide (CBE) in epidermal DNA synthesis two slightly different dosage protocols have been employed. In all cases, mice were treated topically with 20 μl to 40 μl of 250 nmol/μl CBE bid for 2-5 days on the right flank. On the last day, the mice were injected intraperitoneally with ^3H-thymidine (1 μCi/G body weight) diluted 1:10 in 100-200 μl isotonic NaCl. After one hour the mice were sacrificed. Whole skin was excised and subcutaneous fascia and fat were removed by scraped. Skin samples were placed dermis side downward onto 10 mM EDTA in phosphate buffered saline (PBS-CMF; pH 7.4) and incubated at 37° C. for 40 min. The skin was blotted dry with a tissue and epidermis removed by scraping with a surgical blade. The epidermis was minced into small pieces and placed in microcentrifuge vials. Samples were immediately snap frozen and stored in liquid nitrogen until immediately prior to preparation of the epidermal homogenates. 300 μl of 10 mM EDTA in PBS-CMF (pH 7.4) was added to all samples which then underwent tissue homogenization using Polytron (15 sec, ×2 on ice. Polytron tip was rinsed between each homogenization with 400 μl 10 mM EDTA in PBS-CMF. Rinses were combined with same original samples. Samples were sonicated twice for 10 sec on ice. 100 μl of 20% TCA was added and left for 10 min at 4° C. Samples were centrifuged at 2000×g at 4° C. for 5 min. The supernatant was discarded. 500 μl of 5% TCA was added and the samples were centrifuged at 2000×g at 4° C. for 5 min. The supernatant was discarded and this step was repeated again. The precipitate was resuspended in 1ml of 1N NaOH and vortexed. 400 μl or NaOH plus 400 μl of 1N HCl with 8ml Ecolume was used as a background blank. Vials were counted the following day.
We next determined whether the topical administration of structurally similar but less efficient β-glucosidase inhibitors would induce epidermal hyperproliferation. Animals were treated topically twice daily with either Conduritol-B-epoxide, Conduritol B (CB), or deoxynojirimycin (dNJM), each at 40 μl of 250 nmol/μl twice daily, as described in Example 10. After 24 hours, [^3H]-thymidine was injected intraperitoneally and incorporation of thymidine into DNA was determined (FIG. 26 A&B). […] This reduced activity is a result of the relative availability of these inhibitors to in vivo tissues.
Animals were treated as described in Example 10.
We next determined whether occlusion with a vapor-impermeable membrane would enhance the effects of a β-glucocerebrosidase inhibitor on epidermal DNA synthesis. […] After 24 hrs animals were injected with [^3H]-thymidine, and incorporation into DNA was determined (Proksch, et. al., J. Clin. Invest. 87:1668-1673, 1991).

Assay [3] relates to murine epidermis. The description is as above. As to conditions: CBE 750 nmol/5cm^2/day, five days; FIG. 17. Details: species or system mouse.
The test system of assay [4] is murine epidermis. In words: Total epidermal DNA content after topical CBE. The format is in vivo, mouse. The procedure: In addition to measuring DNA synthesis by [^3H]-thymidine incorporation, total epidermal DNA content was determined after applications of CBE. 100 μl of epidermal homogenate was obtained from mice and stored at −70° C. Samples were diluted with Hoechst buffer (pH 7.4) in duplicate. Each sample was brought up to 1 ml with Hoechst buffer. 1 ml of bisbenzimadazole (diluted 1:1000 with dist H2O) was added and samples were vortexed. Standards were prepared using 134 μg/ml calf thymus DNA diluted 1:10 with Hoechst buffer. Final concentration of DNA ranged from 0.067 to 0.335 μg. All samples and standards were covered for 2 hours and absorbance at […] was determined (LaBarca, C. and Paigan (1980) Anal. Biochem. 102:344-352).

For the compound `O[C@H]1[C@H](O)[C@@H](O)[C@@H]2O[C@@H]2[C@@H]1O` (racemic) [CBE, conduritol-B-epoxide], the “thickness, firmness and pliability of murine skin” value in assay [1] is given as “increased”. The “DNA synthesis, CBE, GlcCER and occlusion” value in assay [2] (latex wrap, 24 hrs) is “increased DNA synthesis”. Also, the “epidermal DNA synthesis ([3H]-thymidine incorporation)” value in assay [2] (topical 40 μl of 250 nmol/μl twice daily, after 24 hours) is “potent stimulation”. Also, the “DNA synthesis rates, CBE+occlusion vs CBE alone” value in assay [2] (water-vapor impermeable latex wrap, 24 hrs, 4 separate studies) was “equivalent or higher”. Also, in assay [3], the “proliferative index, CBE-treated over control epidermis ([3H]-thymidine incorporation)” value is reported as “approximately 1.6”. Moreover, the “DNA concentration, higher than untreated samples” value in assay [4] (24 hours following CBE treatment, FIG. 20 & 21) was 6-81%; in assay [4] (3 days of CBE-treatment, FIG. 19) it was 45-113%. In addition, the “DNA concentration, higher than untreated skin samples” value in assay [4] (5 days of CBE-treatment, FIG. 18) is reported as 46-331%.

The record behind these values is US6399580B1, “Methods and compositions for stimulating tissue growth and epithelial moisturization” (The Regents of the University of California, priority 1994, dated 2002).
